# Experimental data reported in PMC4371799 (Clinical Epigenetics, 2015).
# “And” between values parts separate entries of the source, which are not always exact repeats. Identical values can stand only once.
# What was measured:
# [1] = set-up: method as in PMID 10778943; settings: traditional infusion once every 2 to 3 weeks; cited from earlier work
# [2] = oxaliplatin treatment reported by other investigators; cited from earlier work
# [3] = Oxaliplatin plasma pharmacokinetics, non-compartmental analysis; settings: for AUCall / AUCinf / C max / CL / V d / t 1/2: C1D2, mean (SD)
# Experimental: This phase was followed by an expansion phase in which patients with CRC were treated with the maximum tolerated dose (MTD). Patients were treated with six cycles of therapy, unless they withdrew consent or experienced severe adverse events or progressive disease.
# Oxaliplatin pharmacokinetics were assessed on day 2 during cycle 1 to permit correlation of pharmacokinetic parameters with toxicity and treatment outcome. Blood samples (10 ml per sample) were collected immediately prior to oxaliplatin infusion, immediately after infusion, and at 1, 2, 4, 6, 8, 12, and 24 h after infusion. Samples were assayed for total and unbound platinum using either inductively coupled plasma mass spectrometry or atomic absorption spectroscopy methods following isolation of the drug from plasma. Compartmental and non-compartmental models were used to derive pharmacokinetic parameters, including Cmax, AUC, t1/2, Vd, and CL.
# [4] = Total platinum levels in snap-frozen tumor samples (ICP-MS); type: in vivo, patients
# Text: The tumor tissue was frozen and stored in cryogenic storage tubes before being analyzed for total platinum content using inductively coupled plasma mass spectrometry. If a sufficient amount of the sample remained following this analysis, the tissue was subjected to homogenization and extraction with 0.2% formic acid and acetonitrile for analysis by ultra-performance liquid chromatography/mass spectrometry for oxaliplatin content.
# [5] = tested on: CTR1; set-up: method as in PMID 19470736; settings: phase I clinical trial, refractory solid tumors and lymphomas; cited from earlier work
# [6] = azacitidine/oxaliplatin 20/15 mg/m^2, n = 3
# [7] = azacitidine/oxaliplatin 20/22.5 mg/m^2, n = 3
# [8] = azacitidine/oxaliplatin 20/30 mg/m^2, n = 3
# [9] = azacitidine/oxaliplatin 25/30 mg/m^2, n = 3
# [10] = azacitidine/oxaliplatin 40/30 mg/m^2, n = 3
# [11] = azacitidine/oxaliplatin 50/30 mg/m^2, n = 22
# [12] = oxaliplatin 15 to 30 mg/m^2/day IV over 2 h, days 2 to 5, mean over dose levels
# [13] = post-dose vs pre-dose, five post-dose tumor samples, dose level 6
# [14] = seven patients, expansion phase, before treatment
smiles,measurement,setting,value
O=C1[O][Pt]2([NH][C@@H]3CCCC[C@H]3[NH]2)[O]C1=O [oxaliplatin],"AUCinf, mean, traditional infusion",[1],"9,907 ng-h/ml"
same,"Cmax, mean, traditional infusion",[1],877 ng/mL
same,"incidence of peripheral neuropathy, all grades",[2],40% to 50
same,"incidence of peripheral neuropathy, grade ≥3",[2],10% to 20
same,AUCall,[3]; [6],704.3 (228.5) h-ng/ml
same,AUCinf,[3]; [6],"1,003.5 (211.1) h-ng/ml"
same,C max,[3]; [6],337.3 (141.3) ng/ml
same,CL,[3]; [6],15.5 (3.7) l/h/m^2
same,V d,[3]; [6],829.2 (580.0) l/m^2
same,t 1/2,[3]; [6],38.9 (31.9) h
same,AUCall,[3]; [7],"1,178.4 (238.0) h-ng/ml"
same,AUCinf,[3]; [7],"1,359.3 (167.1) h-ng/ml"
same,C max,[3]; [7],573.5 (131.1) ng/ml
same,CL,[3]; [7],16.7 (2.0) l/h/m^2
same,V d,[3]; [7],443.5 (232.2) l/m^2
same,t 1/2,[3]; [7],17.9 (7.7) h
same,AUCall,[3]; [8],"1,149.0 (930.3) h-ng/ml"
same,AUCinf,[3]; [8],"1,411.6 (1,065.1) h-ng/ml"
same,C max,[3]; [8],446.9 (447.8) ng/ml
same,CL,[3]; [8],29.1 (15.7) l/h/m^2
same,V d,[3]; [8],794.5 (703.8) l/m^2
same,t 1/2,[3]; [8],18.6 (11.9) h
same,AUCall,[3]; [9],"1,369.1 (556.1) h-ng/ml"
same,AUCinf,[3]; [9],"1,919.4 (923.3) h-ng/ml"
same,C max,[3]; [9],582.6 (270.3) ng/ml
same,CL,[3]; [9],19.2 (11.4) l/h/m^2
same,V d,[3]; [9],587.5 (240.1) l/m^2
same,t 1/2,[3]; [9],23.7 (10.2) h
same,AUCall,[3]; [10],"1,543.5 (502.1) h-ng/ml"
same,AUCinf,[3]; [10],"1,867.0 (387.0) h-ng/ml"
same,C max,[3]; [10],751.7 (275.5) ng/ml
same,CL,[3]; [10],16.6 (3.9) l/h/m^2
same,V d,[3]; [10],613.8 (541.2) l/m^2
same,t 1/2,[3]; [10],23.3 (15.6) h
same,AUCall,[3]; [11],"1,286.3 (627.0) h-ng/ml"
same,AUCinf,[3]; [11],"1,456 h-ng/ml and 1,455.9 (657.6) h-ng/ml"
same,C max,[3]; [11],650 ng/ml and 649.4 (384.5) ng/ml
same,CL,[3]; [11],24.5 l/h/m^2 and 24.5 (10.2) l/h/m^2
same,V d,[3]; [11],554 l/m^2 and 554.0 (250.7) l/m^2
same,t 1/2,[3]; [11],16.5 (7.1) h
same,"AUCinf, mean of the current infusion regimen",[3]; [12],"1,503 ng-h/ml"
same,"Cmax, mean of the current infusion regimen",[3]; [12],557 ng/mL
same,kinetics of elimination,"[3]; plasma, all dose levels",first-order kinetics of elimination
same,"increase of tumor platinum concentration, median",[4]; [13],3.8 fold
same,"increase of tumor platinum concentration, range",[4]; [13],3- to 18 fold
same,change of tumor platinum concentration,"[4]; post-dose vs pre-dose, the two tumor samples with the highest pre-dose level",remained unchanged
same,"pre-dose platinum level in tumor, median",[4]; [14],0.59 μg/g tumor
same,"pre-dose platinum level in tumor, range",[4]; [14],<0.25 to 5.8 μg/g tumor
Nc1ncn([C@H]2C[C@H](O)[C@@H](CO)O2)c(=O)n1 [decitabine],effect on CTR1 expression,[5],significantly increased CTR1 expression
